Three molecules from US7749491B2, “Compounds and methods to enhance rAAV transduction” (priority 2003, dated 2010) can be followed below.

For data set [1], the system named is IB3 cells. Briefly: AV2Luc / AV2/5Luc transduction and nuclear uptake in IB3 cells. The format is cell-based, human. Conditions: rAAV2-infected IB3 cells; 40 μM LLnL or 1 μM Dox; 24 hours. As to the method: LLnL and Z-LLL are two tripeptidyl aldehydes shown to inhibit calpains, cathepsins, cysteine proteases as well as the chymotrypsin-like protease activity of proteasomes (Wagner et al., 2002; Donkor, 2000; Sasaki et al., 1990). […] Both classes of proteasome inhibitors bind tightly to the proteasome complex. Dose response curves for these two proteasome-modulating agents were evaluated on IB3, A549, Hela, and primary fibroblasts. The responses were consistent for a number of cell lines and for three different promoters driving luciferase expression. For one set, CMV-driven luciferase constructs with an AAV2-based genome were employed that were packaged into AV2 or AV5 capsids. Cells were infected at various doses of AV2Luc and AV2/5Luc (MOIs 100 to 1000 particles/cell). At the time of infection, cells were treated with various concentrations of LLnL or Doxorubicin and gene expression was assayed at 24 hours post-infection. The effect of proteasome inhibitors on nuclear uptake of virus was evaluated using a previously-described protocol for fractionating viral DNA in the cytoplasm and nucleus (Xiao et al., 2002). Viral DNA content in the cytoplasmic and nuclear fractions was then evaluated by slot blot hybridization against a Luciferase DNA probe.

Data set [2] deals with ferret fibroblast. Briefly: rAAV transduction of ferret fibroblasts with LLnL / doxorubicin. It counts as cell-based. Conditions: ferret fibroblast. As for the experimental part: (§1) C. To determine whether combinations of agents that enhance rAAV transduction efficiency have synergistic or additive effects when used in combination, cells were contacted with the proteosome modulator, doxorubicin, and the proteosome inhibitor Z-LLL or LLnL. Different AAV vectors were tested, including splicing vectors and pseudotyped rAAV. Viral stocks utilized were as follows: Av2RSVluc, 5×10^8 particle/μl; Av2RSVlucCap5 (also referred to as Av2/5 CMVLuc), 2×10^9 particle/μl; Av2CMVluc, 1.3×10^9 particle/μl; and Av2CMVlucCap5, 1.1×10^9 particle/μl. Combinations of agents were compared to the agents used alone to determine the efficiency of transduction. LLnL was used at 40, 200 or 400 μM, Z-LLL at 4 μM and doxorubicin at 0.5 or 1 μM when employed alone. When a combination of LLnL and doxorubicin was used, LLnL was used at 4, 10, 20, 40, 200 or 400 μM and doxorubicin at 1 or 5 μM. The apical surface of polarized airway epithelia, HeLa cells or ferret fibroblast was contacted with the agents and rAAV (5×10^9 particles per well).

In data set [3] the test system is A549 cells. In words: AV2Luc / AV2/5Luc transduction of A549 cells with LLnL / doxorubicin. The format is cell-based, human.
The test system of data set [4] is polarized human bronchial epithelial cells. It counts as cell-based. Conditions: for augmentation in transgene expression: applied to the serosal surface along with rAAV, 2 days post infection, LLnL 40 μM. As for the experimental part: Primary culture of human bronchial epithelia and reagents utilized. Primary human airway epithelial cells were collected by enzymatic digestion of bronchial samples from lung transplants, as previously described (Kondo et al., 1991; Zabner et al., 1996). Isolated primary airway cells were seeded at a density of 5×10^5 cells/cm^2 onto collagen-coated Millicell-HA culture inserts (Millipore Corp., Bedford, Mass.). Primary cultures were grown at the air-liquid interface for more than 2 weeks, by which time differentiation into a mucociliary epithelium occurs. The culture medium, used to feed only the basolateral side of the cells, contained 49% DMEM, 49% Ham's F12 and 2% Ultraser G (BioSepra, Cedex, France). Dimethyl Sulphoxide (DMSO), camptothecin (Camp), etoposide (Etop), aphidicolin (Aphi), hydroxyurea (HU) and genistein (Geni) were purchased from Sigma (St. Louis, Mo.). Tripeptidyl aldehyde proteasome inhibitors N-Acetyl-L-Leucyl-L-Leucyl-Norleucine (LLnL) and benzyloxycarbonyl-L-leucyl-L-leucyl-L-leucinal (Z-LLL) were purchased from Calbiochem-Novabiochem Corporation (La Jolla, Calif.). Ubiquitin ligase (E3) inhibitors were obtained from Bachem Bioscience Inc. (King of Prussia, Pa.). Anti-AAV capsid monoclonal antibody (Anti-VP1, 2 and 3) was purchased from American Research Products (Belmont, Mass.) and anti-ubiquitin antibody was purchased from Santa Cruz Biotechnology Inc. (Santa Cruz, Calif.).
Transduction of polarized airway epithelial cells and primary human fibroblasts. rAAV infection of fully differentiated bronchial cells was performed as described in Duan et al. (1998). For infections from the apical surface of the airway cells, 5 μl rAAV was mixed with 50 μl of culture media and applied directly onto the apical compartment of Millicell inserts (MOI=10,000 particles/cell). During apical infection, the basolateral side of the Millicell was continuously bathed in culture media. Gene transfer to the basal side was performed by inverting Millicell inserts and applying viral vector to the bottom of the supporting filter membrane in a 50 μl volume for 2 hours. Subsequently, Millicell inserts were returned to the upright position, in the continued presence of the original viral inoculum plus an additional 450 μl of media. For both apical and basolateral infections, rAAV containing media was removed after 24 hours and replaced with either fresh culture media (for the basal side) or exposed to air (for the apical side). To test the effect of different agents on the efficiency of AAV transduction in polarized airway cells, 1 μl of each solution was mixed with AAV prior to infection of airway epithelia. Agents were usually presented during the 24 hours AAV infection period unless indicated otherwise. Most of the agents were dissolved in DMSO except for hydroxyurea (dissolved in phosphate buffered saline), H-Leu-Ala-OH (dissolved in 0.9% glacial acetic acid) and H-His-Ala-OH (dissolved in 50% methanol). The working concentrations of the agents were as follows: 0.1 μM camptothecin, 10 μM etoposide, 5 μg/ml aphidicolin, 40 mM hydroxyurea, 50 μM genistein, 40 μM LLnL and 4 μM Z-LLL. When the ubiquitin ligase (E3) inhibitors (H-Leu-Ala-OH and H-His-Ala-OH) were used, airway cells were pretreated with a combination of both inhibitors at a final concentration of 2 mM for 60 minutes prior to infection, followed by the continued presence of inhibitor (0.2 mM) during the entire 24 hours infection period from the basolateral surface. Studies involving EGTA treatment were performed by transiently treating the apical membrane of polarized airway epithelia with 3 mM EGTA in water for 10 minutes (Duan et al., 1998). Following hypotonic EGTA treatment, cultures were washed twice with culture medium and infected with rAAV in the presence or absence of 40 μM LLnL. Human primary fibroblast cells (P4) were maintained in 10% fetal bovine serum (FBS), 1% penicillin and streptomycin, and 89% DMEM. […]

The nature of data set [5]: Toxicity of proteasome inhibitors in mice. It counts as in vivo, mouse. Conditions: 10, 100, and 1000 fold higher effective doses; intra-tracheal and systemic (IV) delivery. As to the method: Long-term enhancement of rAAV transduction by proteasome inhibitor in vivo. To evaluate the potential utility of proteasome inhibitors for in vivo gene therapy, both the toxicity and efficacy of these agents for in vivo rAAV mediated gene transfer in the mouse lung was tested. To assess the toxicity of these proteasome inhibitors in mice, 10, 100, and 1000 fold higher effective doses of LLnL or Z-LLL were administered than used to induce gene transfer in polarized airway cells, using both intra-tracheal and systemic (IV) delivery. No toxicity was indicated by histologic evaluation of the lung and liver or was evidenced by the death of animals. To investigate whether these proteasome inhibitors could improve rAAV transduction in vivo, AV.LacZ (5×10^10 particles) was delivered either alone or in the presence of 400 μM Z-LLL by intranasal administration. Mouse lungs were harvested at 3, 10 and 150 days post-infection to evaluate short and long term effects. […] Targeted transgene expression was predominantly confined to the conducting airways, rather than in the parenchyma. Alveolar cells were rarely transduced. […] The range of transgene expression in distal and proximal airways was 0 to 4% and 5 to 18%, respectively.

In data set [6] the test system is HeLa cells. Briefly: Luciferase rAAV transduction of HeLa cells with LLnL / doxorubicin. The format is cell-based. As for the experimental part: as §1
For data set [7], the system named is primary fetal fibroblasts. In words: rAAV transduction of primary fetal fibroblasts with LLnL, Dox or both. It counts as cell-based. Conditions: LLnL by itself. As for the experimental part:
Hela, A549, IB3, and primary fetal fibroblasts were evaluated for AV2Luc and AV2/5Luc transduction in the presence of LLnL, Dox, or LLnL+Dox at various concentrations. The data shown is from Hela and A549 cells at the most optimal dose combination that induces rAV2Luc transduction to a greater extent than each compound alone.

Data set [8] relates to polarized human airway epithelia. Briefly: Luciferase rAAV2 / rAAV5-capsid transduction of polarized human airway epithelia. The format is cell-based.
The test system of data set [9] is HeLa cells. Briefly: AV2eGFP versus scAV2eGFP expression in Hela cells with hydroxyurea. It counts as cell-based. Conditions: 5 mM pretreatment; 24 hours post-infection. As to the method: A set of viral vectors was prepared of half-genome length was prepared. Four GFP-based viruses were generated for this analysis (AV2eGFP, scAV2eGFP, AV2/5eGFP, and scAV2/5eGFP that had either 4.7 kb or 2.4 kb length genomes packaged into AAV2 or AAV5 capsids. The data AAV2 capsid viruses were identical to data for rAAV5 viruses. Functional confirmation of scAAV/dsAAV structure was performed by analysis of gene conversion and gene expression rates in Hela cells, sensitivity of transduction in Hela cells to the DNA synthesis inhibitor hydroxyurea (HU), and by denaturing NaHO gel electrophoresis. Polarized airway epithelia were infected with the various vector constructs from the apical membrane in the presence and absence of applied LLnL at the time of infection. Gene expression was monitored by quantitative morphometry of GFP fluorescence at various post-infection time points.

Data set [10] concerns mouse lung. Briefly: AV2Luc / AV2/5Luc gene transfer to BL6 mouse lung with Z-LLL and/or Dox. The format is in vivo. Conditions: 200 μM.
For data set [11], the system named is mouse lung airway epithelium. Briefly: AV.LacZ gene transfer to mouse lung with Z-LLL (nasal aspiration, X-gal morphometry). The format is in vivo. Conditions: 400 μM Z-LLL; 3 and 10 days post infection. As for the experimental part:
In vivo studies in mice. Animal studies were performed in accordance with the institutional guidelines of the University of Iowa. To determine the effect of the proteasome inhibitor on AAV mediated gene transfer in mouse lung, 6 week-old BALB/c mice were lightly anesthetized using a methoxyflurane chamber. AV.LacZ (5×10^10 particles) was administered alone or with 400 μM Z-LLL in a 10 μl instillation by nasal aspiration as described by Walters et al. (2000). To prevent unforeseen toxicity of DMSO solvent, the proteasome inhibitor Z-LLL was dissolved in ethanol as a 40 mM stock solution and was included in the viral inoculum at 1% final concentration. Viral infection controls in the absence of Z-LLL also contained a 1% final concentration of ethanol. […] Lungs (N=3 for each condition) were embedded in OCT (optimal cutting temperature; Baxter, Warrendale, Pa.) and 15 μm serially sections were analyzed for gene transfer by calculating the percentage of positive cells in the airway epithelium. The diameter of the airway was recorded for classification (>360 μm, 260-350 μm, 160-250 μm, <150 μm) of results following morphometric analysis. Greater than 150 airway cross-sections were quantified for each experimental condition.

Peptide text beside a SMILES is read from it. * marks the point of attachment. Cbz = O=C(OCc1ccccc1)*

As to “N-acetyl-L-leucinyl-L-leucinal-L-norleucinal [LLnL]”, in [1], the “fraction of viral DNA in the nuclear compartment” value is reported as “significantly increased the fraction of viral DNA in the nuclear compartment”. Also, the “concentration at which transduction is enhanced” value is 40 µM in data set [2], 200 to 400 µM in data set [3], 40 µM in [6] and 40 µM in [8] (polarized airway epithelial cells). In addition, the “time of peak of augmentation in AAV transduction, mucosal co-administration” value in data set [4] (LLnL and rAAV to the mucosal surface) is 22 days. Also, the “augmentation in transgene expression” value in data set [4] is on record as “greater than 200 fold”. For the same molecule, the “toxicity to cells on continual administration” value in data set [4] (continual administration, transgene expression ablated by 10 days) was “toxic to cells”. In addition, the “time of transient peak in gene expression, serosal infection” value in data set [4] (rAAV from the serosal surface in the presence of LLnL) came out at 72 h. Besides, the “toxicity (histologic evaluation of lung and liver, death of animals)” value in [5] is “No toxicity”. Further, the induction of transduction in data set [7] is recorded as 10 fold. The “enhancement of transduction from the apical surface” value in data set [8] (LLnL 40 μM and/or Dox 5 μM at the time of infection) is on record as 10 fold. For the same molecule, the “polarity of enhancement of AV2Luc and AV2/5Luc transduction” value in [8] (LLnL 40 μM, 5 and 14 days) is given as “only apical transduction for both AAV serotypes was enhanced”. Moreover, the “effect on AV2.RSVluc transduction” value in data set [8] (apical and basolateral infection) was “augments AV2.RSVluc transduction from the apical and basolateral surfaces”. For the same molecule, the “increase of AV2.RSVlucCap5 transduction” value in data set [8] (virus applied to the apical surface) is 12 fold.

On to `NC(=O)NO` [hydroxyurea], for which, in data set [4] (apical infection, data not shown), the “rAAV transduction from the apical surface” value is on record as “none of these agents facilitated rAAV transduction from the apical surface”. Further, the “effect on gene expression from AV2eGFP and scAV2eGFP” value in data set [9] was “significantly decreased gene expression from AV2eGFP but not scAV2eGFP virus”.

Turning to `CC(C)C[C@@H](C=O)NC(=O)[C@H](CC(C)C)NC(=O)[C@H](CC(C)C)NC(=O)OCc1ccccc1` [Z-LLL, N-carbobenzoxyl-L-leucinyl-L-leucinyl-L-leucinal] (Cbz-Leu-Leu-Leu-aldehyde), the “augmentation in transgene expression” value in [4] was “A similar result was achieved”. Also, the “toxicity (histologic evaluation of lung and liver, death of animals)” value in [5] is “No toxicity”. For the same molecule, the “induction of transgene expression from AV2/5 vectors” value in [10] was 10 fold. In addition, the “transgene expression (X-gal staining of lung)” value in data set [11] is recorded as “no detectable transgene expression”.
